Legend:
ΔF508 CFTR [1] = target: T1, ΔF508 CFTR (Homo sapiens, UniProt P13569, DEL508-508); experiment: Corrector activity, YFP halide (iodide) quenching assay in FRT cells expressing ΔF508 CFTR; format: cell-based; parameters: expressed in transfected cells; host or cells: Fischer rat thyroid (FRT) cells; details: FRT cells ΔF508 CFTR/YFP, 24 hours with compound at 37° C., forskolin and genistein; read-out: Corrector EC50
How it was run: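 FRT cells co-expressing ΔF508 CFTR and halide-sensitive YFP were incubated 24 h at 37° C with compounds, then stimulated 30 min at 37° C in PBS with forskolin and genistein. Endpoint fluorescence after iodide injection was normalized to initial reading; EC50 from 4-parameter fit with bottom constrained to DMSO control.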

ΔF508 CFTR [2] = target: T1, ΔF508 CFTR; experiment: Potentiator activity, YFP halide (iodide) quenching assay in FRT cells expressing ΔF508 CFTR, 27° C. pre-incubation; format: cell-based; parameters: expressed in transfected cells; host or cells: Fischer rat thyroid (FRT) cells; Potentiator activity compared to the DMSO control (no EC50 obtained): scale not given here; details: for EC50: FRT cells ΔF508 CFTR/YFP, 24 hours at 27° C., compound with forskolin 30 min
Experimental: Fisher rat thyroid (FRT) cells stably expressing ΔF508 CFTR and a halide-sensitive variant of yellow fluorescent protein (YFP) were seeded into microtiter plates and allowed to grow for 24 hours at 37° C. and 5% CO2, as described above. The medium was replaced with fresh medium and the cells were incubated for a further 24 hours at 27° C. and 5% CO2 to increase the level of mutant CFTR at the cell surface.
Compounds in DMSO solution were pre-diluted into phosphate-buffered saline solution (PBS) containing forskolin. Activity of CFTR was assayed by removing the medium, washing the cell monolayer with PBS, and then applying the compounds diluted in PBS containing forskolin. After 30 min of incubation at 37° C., the plates were placed in a fluorescence plate reader equipped with a reagent injector. After measuring an initial fluorescence value, iodide-containing buffer was injected and the decrease in fluorescence was followed at excitation and emission wavelengths of 485 and 530 nm, respectively.
Potentiator activity was calculated as follows. Normalized endpoint fluorescence was calculated by dividing the endpoint fluorescence after iodide injection by the initial fluorescence reading and multiplication by 100. Potentiator EC50 values were calculated by the same method as corrector EC50 values.

T1 sequence (P13569 with tags, fused parts or gaps DEL508-508): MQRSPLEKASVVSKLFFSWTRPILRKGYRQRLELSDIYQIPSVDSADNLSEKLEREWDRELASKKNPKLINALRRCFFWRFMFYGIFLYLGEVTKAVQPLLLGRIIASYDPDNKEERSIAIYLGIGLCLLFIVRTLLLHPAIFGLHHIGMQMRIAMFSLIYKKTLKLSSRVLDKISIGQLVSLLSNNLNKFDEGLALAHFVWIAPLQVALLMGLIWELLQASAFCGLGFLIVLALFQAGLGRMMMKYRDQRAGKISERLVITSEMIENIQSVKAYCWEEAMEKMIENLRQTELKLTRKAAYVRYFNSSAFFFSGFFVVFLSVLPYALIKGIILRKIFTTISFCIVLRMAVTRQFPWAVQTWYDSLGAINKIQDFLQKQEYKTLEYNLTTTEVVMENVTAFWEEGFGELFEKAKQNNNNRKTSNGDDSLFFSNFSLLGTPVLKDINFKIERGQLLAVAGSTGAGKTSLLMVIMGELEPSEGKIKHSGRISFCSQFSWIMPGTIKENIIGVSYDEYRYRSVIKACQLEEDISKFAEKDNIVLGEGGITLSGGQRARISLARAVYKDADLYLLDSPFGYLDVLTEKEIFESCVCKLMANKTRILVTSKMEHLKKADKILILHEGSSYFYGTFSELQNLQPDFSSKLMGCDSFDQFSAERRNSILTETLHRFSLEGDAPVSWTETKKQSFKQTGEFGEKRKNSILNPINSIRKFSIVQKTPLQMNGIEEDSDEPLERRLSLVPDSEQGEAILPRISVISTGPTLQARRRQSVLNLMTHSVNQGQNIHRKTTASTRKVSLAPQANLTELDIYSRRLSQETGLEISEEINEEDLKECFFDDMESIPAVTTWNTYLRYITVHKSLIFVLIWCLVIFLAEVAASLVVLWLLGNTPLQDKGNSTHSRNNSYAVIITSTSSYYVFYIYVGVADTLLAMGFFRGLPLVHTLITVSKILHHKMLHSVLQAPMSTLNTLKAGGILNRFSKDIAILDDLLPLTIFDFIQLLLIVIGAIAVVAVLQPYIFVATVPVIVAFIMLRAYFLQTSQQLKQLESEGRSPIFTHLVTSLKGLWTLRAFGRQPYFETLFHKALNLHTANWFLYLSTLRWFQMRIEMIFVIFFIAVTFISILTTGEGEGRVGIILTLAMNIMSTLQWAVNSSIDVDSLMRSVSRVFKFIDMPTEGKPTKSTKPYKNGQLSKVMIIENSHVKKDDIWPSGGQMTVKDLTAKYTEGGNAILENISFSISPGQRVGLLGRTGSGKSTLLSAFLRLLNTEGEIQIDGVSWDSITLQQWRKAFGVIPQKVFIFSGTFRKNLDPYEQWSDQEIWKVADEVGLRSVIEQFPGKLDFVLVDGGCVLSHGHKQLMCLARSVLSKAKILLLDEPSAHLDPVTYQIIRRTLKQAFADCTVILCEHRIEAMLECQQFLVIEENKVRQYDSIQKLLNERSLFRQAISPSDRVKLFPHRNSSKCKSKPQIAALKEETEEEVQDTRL

Row | Structure (SMILES) | EC50 (ΔF508 CFTR [1]) | EC50 (ΔF508 CFTR [2]) | Potentiator activity compared to the DMSO control (no EC50 obtained) (ΔF508 CFTR [2]; at 12 μm)
1 | Cc1ccccc1Oc1nn(C(C)(C)C)c2ncnc(N)c12 [compound 185] | > 15 µM | < 2 µM | –
2 | Nc1ncnc2c1c(-c1ccc(Cl)cc1)nn2C(=O)Oc1ccccc1 [compound 187] | 5 to 10 µM | > 15 µM | –
3 | Nc1ncnc2c1c(-c1ccc(Cl)cc1)nn2C(=O)OCc1ccccc1 [compound 188] | 5 to 10 µM | > 15 µM | –
4 | CC(C)(C)n1nc(Oc2cccc(Oc3ccccc3)c2)c2c(N)ncnc21 [compound 189] | > 15 µM | < 2 µM | –
5 | CC(C)(C)n1nc(Oc2cccc(-c3ccccc3)c2)c2c(N)ncnc21 [compound 190] | 5 to 10 µM | > 15 µM | –
6 | CC(C)(C)n1nc(S(=O)(=O)c2ccccc2)c2c(N)ncnc21 [compound 191, 3-Benzenesulfonyl-1-tert-butyl-1H-pyrazolo[3,4-d]pyrimidin-4-ylamine] | > 15 µM | 5 to 10 µM | –
7 | CC(C)(C)n1nc(Oc2cccc(OC(F)(F)F)c2)c2c(N)ncnc21 [compound 194] | > 15 µM | > 15 µM | –
8 | CC(C)(C)n1nc(Oc2cccc3cccnc23)c2c(N)ncnc21 [compound 195] | 5 to 10 µM | > 15 µM | –
9 | CC(C)(C)n1nc(Oc2ccc(F)cc2)c2c(N)ncnc21 [compound 196] | 5 to 10 µM | < 2 µM | –
10 | CC(C)(C)n1nc(Oc2ccccc2F)c2c(N)ncnc21 [compound 197] | 5 to 10 µM | < 2 µM | –
11 | CC(C)(C)n1nc(Oc2cccc3ccccc23)c2c(N)ncnc21 [compound 198, 1-tert-Butyl-3-(naphthalen-1-yloxy)-1H-pyrazolo[3,4-d]pyrimidin-4-ylamine] | > 15 µM | – | # (at 12 μm)
12 | CC(C)(C)n1nc(Oc2cccc(F)c2)c2c(N)ncnc21 [compound 200] | > 15 µM | < 2 µM | –
13 | CC(C)(C)n1nc(Oc2cccc(C#N)c2)c2c(N)ncnc21 [compound 201] | 5 to 10 µM | 5 to 10 µM | –
14 | Nc1ncnc2c1c(-c1ccc(Cl)cc1)nn2CC(F)F [compound 202] | 5 to 10 µM | > 15 µM | –
15 | CC(C)(C)n1nc(Oc2ccc(C#N)cc2)c2c(N)ncnc21 [compound 205] | > 15 µM | < 2 µM | –
16 | Cc1ccc(F)c(Oc2nn(C(C)(C)C)c3ncnc(N)c23)c1 [compound 206] | > 15 µM | > 15 µM | –
17 | CCn1nc(Sc2cccc3ccccc23)c2c(N)ncnc21 [compound 207] | > 15 µM | < 2 µM | –
18 | CCn1nc(Sc2ccc(F)cc2)c2c(N)ncnc21 [compound 208] | > 15 µM | < 2 µM | –
19 | CC(C)(C)n1nc(Oc2cccc3c2CCCC3)c2c(N)ncnc21 [compound 209] | > 15 µM | > 15 µM | –
20 | CC(C)(C)n1nc(Oc2ccc3c(c2)CCC3)c2c(N)ncnc21 [compound 210] | 5 to 10 µM | < 2 µM | –
21 | CCn1nc(S(=O)(=O)c2cccc3ccccc23)c2c(N)ncnc21 [compound 212] | > 15 µM | > 15 µM | –
22 | CCn1nc(Sc2ccc(Cl)cc2)c2c(N)ncnc21 [compound 216] | > 15 µM | < 2 µM | –
23 | CCn1nc(Sc2ccccc2F)c2c(N)ncnc21 [compound 217] | > 15 µM | > 15 µM | –
24 | CCn1nc(Sc2cccc(C)c2)c2c(N)ncnc21 [compound 218] | 5 to 10 µM | < 2 µM | –
25 | CCn1nc([S+]([O-])c2cccc(C)c2)c2c(N)ncnc21 (centres unmarked) [compound 224] | > 15 µM | > 15 µM | –
26 | CCn1nc(Sc2cccc(Cl)c2)c2c(N)ncnc21 [compound 226] | > 15 µM | < 2 µM | –

Row | Structure (SMILES) | EC50 (ΔF508 CFTR [1]) | EC50 (ΔF508 CFTR [2]) | Potentiator activity compared to the DMSO control (no EC50 obtained) (ΔF508 CFTR [2]; at 12 μm)
27 | CCn1nc(Sc2ccccc2Cl)c2c(N)ncnc21 [compound 227] | > 15 µM | > 15 µM | –
28 | Nc1ncnc2c1c(Oc1cccc(Cl)c1)nn2C1CCC1 [compound 228] | > 15 µM | < 2 µM | –
29 | CC(C)(C)n1nc(Oc2ccc(OCc3ccccc3)cc2)c2c(N)ncnc21 [compound 233] | > 15 µM | > 15 µM | –
30 | CCn1nc(Sc2cccc(Br)c2)c2c(N)ncnc21 [compound 236] | > 15 µM | < 2 µM | –
31 | CC(C)(C)n1nc(Oc2ccc(C(=O)c3ccccc3)cc2)c2c(N)ncnc21 [compound 237] | > 15 µM | > 15 µM | –
32 | CCn1nc([S+]([O-])c2cccc(F)c2)c2c(N)ncnc21 (centres unmarked) [compound 238] | > 15 µM | > 15 µM | –
33 | CCC(=O)Nc1ncnc2c1c(-c1ccc(Cl)cc1)nn2C(C)(C)C [compound 240] | 5 to 10 µM | < 2 µM | –
34 | CCn1nc([S+]([O-])c2cccc3ccccc23)c2c(N)ncnc21 (centres unmarked) [compound 241] | > 15 µM | > 15 µM | –
35 | CC(C)(C)n1nc(Sc2cccc(C(F)(F)F)c2)c2c(N)ncnc21 [compound 244, 1-tert-Butyl-3-(3-trifluoromethyl-phenylsulfanyl)-1H-pyrazolo[3,4-d]pyrimidin-4-ylamine] | > 15 µM | 5 to 10 µM | –
36 | CC(C)(C)n1nc(Sc2ccccn2)c2c(N)ncnc21 [compound 245] | > 15 µM | 5 to 10 µM | –
37 | Nc1ncnc2c1c(-c1ccc(Cl)cc1)nn2C1CCCC1 [compound 247] | 2 to 5 µM | 2 to 5 µM | –
38 | CC(C)Cn1nc(-c2ccc(Cl)cc2)c2c(N)ncnc21 [compound 252] | 2 to 5 µM | 5 to 10 µM | –
39 | Nc1ncnc2c1c(Oc1cccc(Cl)c1)nn2CC1CCC1 [compound 256] | > 15 µM | < 2 µM | –
40 | Nc1ncnc2c1c(-c1ccc(Cl)cc1)cn2C1CCC1 [compound 257] | < 2 µM | < 2 µM | –
41 | Nc1ncnc2c1c(-c1ccc(Cl)cc1)cn2CC1CCC1 [compound 262] | 2 to 5 µM | 2 to 5 µM | –
42 | Nc1ncnc2c1c(Oc1cccc(Cl)c1)nn2CC(F)F [compound 263] | > 15 µM | > 15 µM | –
43 | CCn1nc(Sc2cc(F)cc(F)c2)c2c(N)ncnc21 [compound 264] | > 15 µM | 2 to 5 µM | –
44 | CC(C)C(=O)Nc1ncnc2c1c(-c1ccc(Cl)cc1)nn2C(C)(C)C [compound 265] | 5 to 10 µM | < 2 µM | –
45 | CC(C)(C)n1nc(-c2ccc(Cl)cc2)c2c(NC(=O)C3CCCC3)ncnc21 [compound 266] | 5 to 10 µM | < 2 µM | –
46 | CC(C)(C)n1nc(-c2ccc(Cl)cc2)c2c(NC(=O)N3CCOCC3)ncnc21 [compound 268] | > 15 µM | > 15 µM | –
47 | CN(C)C(=O)Nc1ncnc2c1c(-c1ccc(Cl)cc1)nn2C(C)(C)C [compound 269] | > 15 µM | > 15 µM | –
48 | CCOC(=O)N1CC(n2nc(-c3ccc(Cl)cc3)c3c(N)ncnc32)C1 [compound 270] | > 15 µM | > 15 µM | –
49 | CCC(=O)Nc1ncnc2c1c(-c1ccc(Cl)cc1)cn2CC [compound 271] | < 2 µM | 5 to 10 µM | –
50 | CCn1cc(-c2ccc(Cl)cc2)c2c(NC(=O)c3ccccc3)ncnc21 [compound 272] | < 2 µM | > 15 µM | –
51 | CC(C)(C)n1nc(-c2ccc(Cl)cc2)c2c(NC(=O)N3CCCCC3)ncnc21 [compound 273] | > 15 µM | > 15 µM | –
52 | CC(C)(C)n1nc(-c2ccc(O)cc2Cl)c2c(N)ncnc21 [compound 276] | 5 to 10 µM | < 2 µM | –
